System: KRAS PDC multicell spheroid viability
Assay: Anticancer human tumor 825966-067-R-J1-PDC patient-derived colon carcinoma cell line growth inhibition [KRAS2]
Conditions: for IC50: curve of first compound; for viability, T/C: stronger effect = lower value
Outline: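 Combination screen of spheroid viability in tumor-cell co-cultures with endothelial (HUVEC) and mesenchymal stem cell stroma. Each agent was tested in half-log dilutions, topping at clinical Cmax or at 10 microM without a known Cmax.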

[1] = second compound 0.1 µM, first compound 0.0316 µM
[2] = second compound 0.316 µM, first compound 0.0316 µM
[3] = second compound 1 µM, first compound 0.0316 µM
[4] = second compound 3.16 µM, first compound 0.0316 µM
[5] = second compound 10 µM, first compound 0.0316 µM
[6] = second compound 0.1 µM, first compound 0.1 µM
[7] = second compound 0.1 µM, first compound 0.316 µM
[8] = second compound 0.1 µM, first compound 1 µM
[9] = second compound 0.1 µM, first compound 3.16 µM
[10] = second compound 0.1 µM, first compound 10 µM
[11] = second compound 0.316 µM, first compound 0.1 µM
[12] = second compound 0.316 µM, first compound 0.316 µM
[13] = second compound 0.316 µM, first compound 1 µM
[14] = second compound 0.316 µM, first compound 3.16 µM
[15] = second compound 0.316 µM, first compound 10 µM
[16] = second compound 1 µM, first compound 0.1 µM
[17] = second compound 1 µM, first compound 0.316 µM
[18] = second compound 1 µM, first compound 1 µM
[19] = second compound 1 µM, first compound 3.16 µM
[20] = second compound 1 µM, first compound 10 µM
[21] = second compound 3.16 µM, first compound 0.1 µM
[22] = second compound 3.16 µM, first compound 0.316 µM
[23] = second compound 3.16 µM, first compound 1 µM
[24] = second compound 3.16 µM, first compound 3.16 µM
[25] = second compound 3.16 µM, first compound 10 µM
[26] = second compound 10 µM, first compound 0.1 µM
[27] = second compound 10 µM, first compound 0.316 µM
[28] = second compound 10 µM, first compound 1 µM
[29] = second compound 10 µM, first compound 3.16 µM
[30] = second compound 10 µM, first compound 10 µM
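Further: spheroids exposed to compounds for 7 days.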
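Wherever viability, T/C is given: 100% = DMSO vehicle control viability.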

With `CC(=O)Nc1cccc(-n2c(=O)n(C3CC3)c(=O)c3c(Nc4ccc(I)cc4F)n(C)c(=O)c(C)c32)c1` + C=CC(=O)N1CCN(c2nc(=O)n(-c3c(C)ccnc3C(C)C)c3nc(-c4c(O)cccc4F)c(F)cc23)C(C)C1 the IC50 (second compound 0.1 µM) was 17 nM, the IC50 (second compound 0.316 µM) was 22.8 nM and the IC50 (second compound 1 µM) was > 31.6 nM. The IC50 (second compound 3.16 µM) was 27.5 nM, the IC50 (second compound 10 µM) was 14.1 nM and the viability, T/C (second compound 0.1 µM, first compound 0.0001 µM) was 91.9%. It also gave a viability, T/C (second compound 0.1 µM, first compound 0.000316 µM) of 84.9%, a viability, T/C (second compound 0.1 µM, first compound 0.001 µM) of 99.5% and a viability, T/C (second compound 0.1 µM, first compound 0.00316 µM) of 128%. For the same molecule, the viability, T/C (second compound 0.1 µM, first compound 0.01 µM) was 72.5%, the viability, T/C [1] was 23.7% and the viability, T/C (second compound 0.316 µM, first compound 0.0001 µM) was 84.8%. For the same molecule, the viability, T/C (second compound 0.316 µM, first compound 0.000316 µM) was 82.7%, the viability, T/C (second compound 0.316 µM, first compound 0.001 µM) was 111% and the viability, T/C (second compound 0.316 µM, first compound 0.00316 µM) was 129%. For the same molecule, the viability, T/C (second compound 0.316 µM, first compound 0.01 µM) was 95.6%, the viability, T/C [2] was 31.8% and the viability, T/C (second compound 1 µM, first compound 0.0001 µM) was 92.2%. The viability, T/C (second compound 1 µM, first compound 0.000316 µM) was 89.4%, the viability, T/C (second compound 1 µM, first compound 0.001 µM) was 99.8% and the viability, T/C (second compound 1 µM, first compound 0.00316 µM) was 114%. The viability, T/C (second compound 1 µM, first compound 0.01 µM) was 102%, the viability, T/C [3] was 52.5% and the viability, T/C (second compound 3.16 µM, first compound 0.0001 µM) was 72.2%. The viability, T/C (second compound 3.16 µM, first compound 0.000316 µM) was 97.7%, the viability, T/C (second compound 3.16 µM, first compound 0.001 µM) was 95.4% and the viability, T/C (second compound 3.16 µM, first compound 0.00316 µM) was 97.3%. The viability, T/C (second compound 3.16 µM, first compound 0.01 µM) was 80.2%, the viability, T/C [4] was 45.9% and the viability, T/C (second compound 10 µM, first compound 0.0001 µM) was 81.3%. For the same molecule, the viability, T/C (second compound 10 µM, first compound 0.000316 µM) was 89.5%, the viability, T/C (second compound 10 µM, first compound 0.001 µM) was 77.3% and the viability, T/C (second compound 10 µM, first compound 0.00316 µM) was 101%. It also gave a viability, T/C (second compound 10 µM, first compound 0.01 µM) of 55.2% and a viability, T/C [5] of 37.6%.
For `COc1cc2nccc(Oc3ccc(NC(=O)C4(C(=O)Nc5ccc(F)cc5)CC4)cc3)c2cc1OC` + CNCc1ccccc1-c1csc(C(C)Nc2nc(C)nc3cc(OC)c(OC)cc23)c1, the IC50 (second compound 0.1 µM) was 1740 nM, the IC50 (second compound 0.316 µM) was 1730 nM and the IC50 (second compound 1 µM) was 1880 nM. For the same molecule, the IC50 (second compound 3.16 µM) was 192 nM, the IC50 (second compound 10 µM) was < 31.6 nM and the viability, T/C [1] was 86.2%. It also gave a viability, T/C [6] of 124%, a viability, T/C [7] of 94% and a viability, T/C [8] of 91.2%. The viability, T/C [9] was 4.92%, the viability, T/C [10] was 6.89% and the viability, T/C [2] was 74.8%. It also gave a viability, T/C [11] of 98.7%, a viability, T/C [12] of 94% and a viability, T/C [13] of 97.8%. For the same molecule, the viability, T/C [14] was 3.71%, the viability, T/C [15] was 4.44% and the viability, T/C [3] was 97.9%. It also gave a viability, T/C [16] of 117%, a viability, T/C [17] of 104% and a viability, T/C [18] of 122%. For the same molecule, the viability, T/C [19] was 0.94%, the viability, T/C [20] was 0.47% and the viability, T/C [4] was 113%. It also gave a viability, T/C [21] of 59.8%, a viability, T/C [22] of 53.4% and a viability, T/C [23] of 1.03%. For the same molecule, the viability, T/C [24] was 0.6%, the viability, T/C [25] was 0.24% and the viability, T/C [5] was 0.28%. The viability, T/C [26] was 0.32%, the viability, T/C [27] was 0.24% and the viability, T/C [28] was 0.18%. For the same molecule, the viability, T/C [29] was 0.17% and the viability, T/C [30] was 0.29%.
With `Cn1nccc1Nc1nccc(-c2cc3c(s2)C(C)(C)N(CCN2CCOCC2)C3=O)n1` + C=CC(=O)N1CCN(c2nc(=O)n(-c3c(C)ccnc3C(C)C)c3nc(-c4c(O)cccc4F)c(F)cc23)C(C)C1 the IC50 (second compound 0.1 µM) was > 10000 nM, the IC50 (second compound 0.316 µM) was > 10000 nM and the IC50 (second compound 1 µM) was 7090 nM. The IC50 (second compound 3.16 µM) was > 10000 nM, the IC50 (second compound 10 µM) was > 10000 nM and the viability, T/C [1] was 89.9%. For the same molecule, the viability, T/C [6] was 101%, the viability, T/C [7] was 119% and the viability, T/C [8] was 100%. The viability, T/C [9] was 81.3%, the viability, T/C [10] was 85.8% and the viability, T/C [2] was 84.2%. The viability, T/C [11] was 91.3%, the viability, T/C [12] was 122% and the viability, T/C [13] was 107%. The viability, T/C [14] was 83.2%, the viability, T/C [15] was 72.2% and the viability, T/C [3] was 86.9%. It also gave a viability, T/C [16] of 83.6%, a viability, T/C [17] of 103% and a viability, T/C [18] of 98.7%. For the same molecule, the viability, T/C [19] was 78.4%, the viability, T/C [20] was 38% and the viability, T/C [4] was 95.3%. It also gave a viability, T/C [21] of 95.7%, a viability, T/C [22] of 111% and a viability, T/C [23] of 82.8%. The viability, T/C [24] was 77.7%, the viability, T/C [25] was 67% and the viability, T/C [5] was 73.4%. The viability, T/C [26] was 86.5%, the viability, T/C [27] was 92.1% and the viability, T/C [28] was 82.5%. For the same molecule, the viability, T/C [29] was 77.8% and the viability, T/C [30] was 73%.
